Measured values: patent US12421282B2, “Compositions and methods for the treatment of metabolic and liver disorders” (priority 2021, dated 2025)
Like-named read-outs stand apart in the source and are kept apart here. *1 amine or outer side, *2 acyl side, *3 side chain or, on linkers, in order; H or OH if unused. Where a SMILES comes first, the peptide text is derived from it. Side-chain parts run from the residue outwards. [ ]: non-standard residue; d: D form. The star is where a group is joined. Nonadecanoyl(19-PO3H2) = O=C(CCCCCCCCCCCCCCCCCCP(=O)(O)O)*; γGlu = O=C(O)[C@H](CCC(=O)[*:2])N[*:1]; AEEA = NCCOCCOCC(=O)O; Aib = CC(C)(N)C(=O)O

What was measured:
[1] = biological target: human recombinant GLP-1 receptor (Homo sapiens, UniProt P43220); assay: TagLite binding assay, GLP-1 receptor, without and with 2% HSA
Source text: (§1) Binding data for Compounds 15-25, for two human recombinant G protein coupled receptors, GLP-1 and GIP, was obtained using […]® binding assay and Epics Therapeutics cell lines. The binding assay was repeated in the presence of 2% human serum albumin (HSA). Compounds 16, 21, and 22 have an HSA ratio for the GLP-1 receptor of 7.1, 7.6, and 7.8, respectively. Compounds 15, 18, and 23 have an HSA ratio for the GIP receptor of 7.3, 4.3, and 6.4, respectively. A lower HSA ratio indicates greater binding affinity for the receptor than for albumin when compared to a compound with a greater HSA ratio.

[2] = biological target: T1, human recombinant GIP receptor (Homo sapiens, UniProt P48546); assay: TagLite binding assay, GIP receptor, without and with 2% HSA
T1 sequence (P48546 22-466): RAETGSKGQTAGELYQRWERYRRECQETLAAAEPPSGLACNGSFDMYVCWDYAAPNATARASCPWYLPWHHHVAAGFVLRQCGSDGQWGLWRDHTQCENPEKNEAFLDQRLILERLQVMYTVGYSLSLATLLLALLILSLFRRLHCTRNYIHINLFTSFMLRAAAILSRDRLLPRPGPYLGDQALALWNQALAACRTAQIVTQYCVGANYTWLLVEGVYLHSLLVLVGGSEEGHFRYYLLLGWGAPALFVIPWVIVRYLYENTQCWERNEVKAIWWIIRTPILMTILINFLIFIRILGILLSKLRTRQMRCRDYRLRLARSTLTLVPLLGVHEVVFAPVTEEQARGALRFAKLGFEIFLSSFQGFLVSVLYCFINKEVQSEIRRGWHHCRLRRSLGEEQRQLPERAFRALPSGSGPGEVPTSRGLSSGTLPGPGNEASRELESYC
Source text: as §1

[3] = parameters: species or system cynomolgus monkeys; conditions: cynomolgus monkey, in vivo, sc, 0.2 mg/kg
Protocol: Subcutaneous (SC) dosing of the compounds in a vehicle of 0.1% bovine serum albumin in phosphate buffered saline solution was performed with male cynomolgus monkeys. […] Samples were obtained at 1, 4, 8, 12, 24, 48, 72, 96, 120, 168, 192, 240 and 336 hours after the single dose was administered.

[4] = 2% human serum albumin, read-out: GLP-1 receptor IC50 2% HSA
[5] = no HSA, read-out: GLP-1 receptor IC50 No HSA
[6] = 2% human serum albumin, read-out: GIP receptor IC50 2% HSA
[7] = no HSA, read-out: GIP receptor IC50 No HSA

human recombinant GLP-1 receptor, sequence (P43220 24-463): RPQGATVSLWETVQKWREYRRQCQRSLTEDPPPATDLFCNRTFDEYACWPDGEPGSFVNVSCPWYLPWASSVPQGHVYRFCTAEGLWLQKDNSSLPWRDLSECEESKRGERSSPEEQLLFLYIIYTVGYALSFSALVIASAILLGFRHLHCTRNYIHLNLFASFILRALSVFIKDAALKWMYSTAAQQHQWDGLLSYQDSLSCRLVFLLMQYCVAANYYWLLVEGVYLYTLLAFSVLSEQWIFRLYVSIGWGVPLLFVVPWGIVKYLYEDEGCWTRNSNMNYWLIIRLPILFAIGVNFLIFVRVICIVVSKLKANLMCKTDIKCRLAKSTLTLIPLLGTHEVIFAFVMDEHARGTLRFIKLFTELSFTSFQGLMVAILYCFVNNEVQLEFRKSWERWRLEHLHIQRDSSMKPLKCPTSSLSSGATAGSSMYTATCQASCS

| SMILES | IC50 [1, 4] [nM] | IC50 [1, 5] [nM] | IC50 [2, 6] [µM] | IC50 [2, 7] [µM] | AUC(0-inf) [3] [µg·h/mL] | AUC(0-t) [3] [µg·h/mL] | Cmax [3] [ng/mL] | Tmax [3] [h] | half-life [3] [days] | mean half life longer compared to tirzepatide [3] | mean half life as compared to tirzepatide (in words) [3] |
| --- | --- | --- | --- | --- | --- | --- | --- | --- | --- | --- | --- |
| CC[C@H](C)[C@H](NC(=O)[C@H](CCCCN)NC(=O)[C@H](CC(=O)O)NC(=O)[C@H](CC(C)C)NC(=O)[C@H](Cc1ccccc1)NC(=O)[C@@H](NC(=O)[C@H](CO)NC(=O)[C@H](Cc1ccc(O)cc1)NC(=O)[C@H](CC(=O)O)NC(=O)[C@H](CO)NC(=O)[C@@H](NC(=O)[C@H](Cc1ccccc1)NC(=O)[C@@H](NC(=O)CNC(=O)[C@H](CCC(=O)O)NC(=O)C(C)(C)NC(=O)[C@@H](N)Cc1ccc(O)cc1)[C@@H](C)O)[C@@H](C)O)[C@@H](C)CC)C(=O)N[C@@H](C)C(=O)N[C@@H](CCC(N)=O)C(=O)N[C@@H](CCCCNC(=O)COCCOCCNC(=O)COCCOCCNC(=O)CC[C@H](NC(=O)CCCCCCCCCCCCCCCCCCP(=O)(O)O)C(=O)O)C(=O)N[C@@H](C)C(=O)N[C@@H](Cc1ccccc1)C(=O)N[C@H](C(=O)N[C@@H](CC(N)=O)C(=O)N[C@@H](Cc1c[nH]c2ccccc12)C(=O)N[C@@H](CC(C)C)C(=O)N[C@H](C(=O)N[C@@H](C)C(=O)NCC(=O)NCC(=O)N1CCC[C@H]1C(=O)N[C@@H](CO)C(=O)N[C@@H](CO)C(=O)NCC(=O)N[C@@H](C)C(=O)N1CCC[C@H]1C(=O)N1CCC[C@H]1C(=O)N1CCC[C@H]1C(=O)N[C@@H](CO)C(N)=O)[C@@H](C)CC)C(C)C [Compound 21] (H-Y[Aib]EGTFTSDYSIFLDKIAQK([AEEA-AEEA-γGlu-Nonadecanoyl(19-PO3H2)])AFVNWLIAGGPSSGAPPPS-NH2) | 1100 | 144 | 5.28 | 0.561 | 54 | 49.4 | 339 | 48 | 3.77 | at least 50% |  |
| CC[C@H](C)[C@H](NC(=O)[C@H](CC(C)C)NC(=O)[C@H](Cc1c[nH]c2ccccc12)NC(=O)[C@H](CCC(N)=O)NC(=O)[C@@H](NC(=O)[C@H](Cc1ccccc1)NC(=O)[C@H](C)NC(=O)[C@H](CCCCNC(=O)COCCOCCNC(=O)COCCOCCNC(=O)CC[C@H](NC(=O)CCCCCCCCCCCCCCCCCCP(=O)(O)O)C(=O)O)NC(=O)[C@H](CCC(N)=O)NC(=O)[C@H](C)NC(=O)[C@@H](NC(=O)[C@H](CCCCN)NC(=O)[C@H](CC(=O)O)NC(=O)[C@H](CC(C)C)NC(=O)C(C)(C)NC(=O)[C@@H](NC(=O)[C@H](CO)NC(=O)[C@H](Cc1ccc(O)cc1)NC(=O)[C@H](CC(=O)O)NC(=O)[C@H](CO)NC(=O)[C@@H](NC(=O)[C@H](Cc1ccccc1)NC(=O)[C@@H](NC(=O)CNC(=O)[C@H](CCC(=O)O)NC(=O)C(C)(C)NC(=O)[C@@H](N)Cc1ccc(O)cc1)[C@@H](C)O)[C@@H](C)O)[C@@H](C)CC)[C@@H](C)O)C(C)C)C(=O)N[C@@H](C)C(=O)NCC(=O)NCC(=O)N1CCC[C@H]1C(=O)N[C@@H](CO)C(=O)N[C@@H](CO)C(=O)NCC(=O)N[C@@H](C)C(=O)N1CCC[C@H]1C(=O)N1CCC[C@H]1C(=O)N1CCC[C@H]1C(=O)N[C@@H](CO)C(N)=O [Compound 23] (H-Y[Aib]EGTFTSDYSI[Aib]LDKTAQK([AEEA-AEEA-γGlu-Nonadecanoyl(19-PO3H2)])AFVQWLIAGGPSSGAPPPS-NH2) | 3120 | 400 | 5.63 | 0.873 | 574 | 439 | 2940 | 34.7 | 6.64 | at least 50% | more than twice an long as compared to tirzepatide |
| CC[C@H](C)[C@H](NC(=O)[C@H](CC(C)C)NC(=O)[C@H](Cc1c[nH]c2ccccc12)NC(=O)[C@H](CCC(N)=O)NC(=O)[C@@H](NC(=O)[C@H](Cc1ccccc1)NC(=O)[C@H](C)NC(=O)[C@H](CCCCNC(=O)COCCOCCNC(=O)COCCOCCNC(=O)CC[C@H](NC(=O)CCCCCCCCCCCCCCCCCCP(=O)(O)O)C(=O)O)NC(=O)[C@H](CCC(N)=O)NC(=O)[C@H](CO)NC(=O)[C@@H](NC(=O)[C@H](CCCCN)NC(=O)[C@H](CC(=O)O)NC(=O)[C@H](CC(C)C)NC(=O)C(C)(C)NC(=O)[C@@H](NC(=O)[C@H](CO)NC(=O)[C@H](Cc1ccc(O)cc1)NC(=O)[C@H](CC(=O)O)NC(=O)[C@H](CO)NC(=O)[C@@H](NC(=O)[C@H](Cc1ccccc1)NC(=O)[C@@H](NC(=O)CNC(=O)[C@H](CCC(=O)O)NC(=O)C(C)(C)NC(=O)[C@@H](N)Cc1ccc(O)cc1)[C@@H](C)O)[C@@H](C)O)[C@@H](C)CC)[C@@H](C)CC)C(C)C)C(=O)N[C@@H](C)C(=O)NCC(=O)NCC(=O)N1CCC[C@H]1C(=O)N[C@@H](CO)C(=O)N[C@@H](CO)C(=O)NCC(=O)N[C@@H](C)C(=O)N1CCC[C@H]1C(=O)N1CCC[C@H]1C(=O)N1CCC[C@H]1C(=O)N[C@@H](CO)C(N)=O [Compound 24] (H-Y[Aib]EGTFTSDYSI[Aib]LDKISQK([AEEA-AEEA-γGlu-Nonadecanoyl(19-PO3H2)])AFVQWLIAGGPSSGAPPPS-NH2) | 6830 | 686 | 11.4 | 1.16 | 348 | 302 | 2130 | 22.7 | 4.63 | at least 50% |  |
